Measurements taken from ChEMBL document CHEMBL1134950, “Retro-binding thrombin active site inhibitors: identification of an orally active inhibitor of thrombin catalytic activity” (Bioorg Med Chem Lett, 2002).
Blank lines part the entries; values can stand above or below the molecule they belong to.

Tests used:
Prothrombin [1] = biological target: T1, Prothrombin (Homo sapiens, UniProt P00734); test: Concentration required to inhibit Human alpha-thrombin was determined
Serine protease 1 = biological target: T2, Serine protease 1 (Bos taurus, UniProt P00760); test: Concentration required to inhibit Trypsin was determined
T2 sequence (P00760 whole entry): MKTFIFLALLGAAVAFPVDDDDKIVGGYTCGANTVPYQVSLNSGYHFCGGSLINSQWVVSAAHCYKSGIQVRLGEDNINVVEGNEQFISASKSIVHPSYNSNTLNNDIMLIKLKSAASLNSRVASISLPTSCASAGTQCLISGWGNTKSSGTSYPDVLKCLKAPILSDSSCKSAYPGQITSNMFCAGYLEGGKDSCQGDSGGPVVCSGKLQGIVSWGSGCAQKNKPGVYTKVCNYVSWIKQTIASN

Prothrombin [2] = biological target: T1, Prothrombin; test: Inhibitory constant of thrombin catalytic activity was determined
Mus musculus [3] = test: Efficacy required to inhibit thrombin was determined after 1 hr of oral administration in the mouse thrombin challenge model; format: functional
Mus musculus [4] = test: Efficacy required to inhibit thrombin was determined after 10 min of intravenous administration in the mouse thrombin challenge model; format: functional
Prothrombin [5] = biological target: T1, Prothrombin; test: Concentration required to inhibit thrombin was determined
Plasminogen = Plasminogen (Homo sapiens, UniProt P00747); test: Concentration required to inhibit Plasmin was determined
Sequence of Plasminogen (P00747 97-580 limits assumed): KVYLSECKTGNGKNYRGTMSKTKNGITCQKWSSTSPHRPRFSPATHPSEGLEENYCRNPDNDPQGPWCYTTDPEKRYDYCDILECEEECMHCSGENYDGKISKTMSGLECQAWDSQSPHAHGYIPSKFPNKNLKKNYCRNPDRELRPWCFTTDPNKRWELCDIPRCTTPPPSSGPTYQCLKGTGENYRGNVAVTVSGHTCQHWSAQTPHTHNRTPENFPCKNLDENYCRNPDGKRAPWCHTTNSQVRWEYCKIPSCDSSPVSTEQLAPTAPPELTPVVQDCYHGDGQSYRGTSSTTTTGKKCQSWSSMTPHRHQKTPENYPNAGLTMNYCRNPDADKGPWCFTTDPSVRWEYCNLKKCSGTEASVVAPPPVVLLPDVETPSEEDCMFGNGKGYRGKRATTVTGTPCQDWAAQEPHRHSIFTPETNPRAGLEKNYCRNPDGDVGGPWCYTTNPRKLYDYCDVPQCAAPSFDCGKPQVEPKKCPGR
Sequence of Plasminogen (P00747 581-810 limits assumed): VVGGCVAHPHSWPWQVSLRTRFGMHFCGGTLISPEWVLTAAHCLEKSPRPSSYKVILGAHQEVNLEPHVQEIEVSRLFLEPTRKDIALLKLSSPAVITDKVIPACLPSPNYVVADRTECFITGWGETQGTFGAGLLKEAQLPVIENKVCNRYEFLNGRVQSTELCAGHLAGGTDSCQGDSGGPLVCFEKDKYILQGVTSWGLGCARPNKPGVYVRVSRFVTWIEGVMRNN

Coagulation factor X = Coagulation factor X (Homo sapiens, UniProt P00742); test: Concentration required to inhibit Coagulation factor X was determined
Sequence of Coagulation factor X (P00742 41-179 limits assumed): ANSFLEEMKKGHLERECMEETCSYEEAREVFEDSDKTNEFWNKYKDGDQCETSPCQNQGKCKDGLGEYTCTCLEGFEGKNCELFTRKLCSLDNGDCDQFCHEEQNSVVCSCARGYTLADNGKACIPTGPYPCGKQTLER
Sequence of Coagulation factor X (P00742 235-488 limits assumed): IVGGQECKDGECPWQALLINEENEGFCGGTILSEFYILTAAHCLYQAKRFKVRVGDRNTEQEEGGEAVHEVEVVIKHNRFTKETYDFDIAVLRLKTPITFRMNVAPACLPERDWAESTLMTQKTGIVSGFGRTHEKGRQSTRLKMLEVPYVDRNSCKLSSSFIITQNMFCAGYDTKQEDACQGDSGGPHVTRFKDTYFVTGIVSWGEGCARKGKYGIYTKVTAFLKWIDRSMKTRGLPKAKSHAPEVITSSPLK

[6] = biological target: T3, Tissue-type plasminogen activator (Homo sapiens, UniProt P00750); test: Concentration required to inhibit Tissue-type plasminogen activator (t-PA) was determined
T3 sequence (P00750 whole entry): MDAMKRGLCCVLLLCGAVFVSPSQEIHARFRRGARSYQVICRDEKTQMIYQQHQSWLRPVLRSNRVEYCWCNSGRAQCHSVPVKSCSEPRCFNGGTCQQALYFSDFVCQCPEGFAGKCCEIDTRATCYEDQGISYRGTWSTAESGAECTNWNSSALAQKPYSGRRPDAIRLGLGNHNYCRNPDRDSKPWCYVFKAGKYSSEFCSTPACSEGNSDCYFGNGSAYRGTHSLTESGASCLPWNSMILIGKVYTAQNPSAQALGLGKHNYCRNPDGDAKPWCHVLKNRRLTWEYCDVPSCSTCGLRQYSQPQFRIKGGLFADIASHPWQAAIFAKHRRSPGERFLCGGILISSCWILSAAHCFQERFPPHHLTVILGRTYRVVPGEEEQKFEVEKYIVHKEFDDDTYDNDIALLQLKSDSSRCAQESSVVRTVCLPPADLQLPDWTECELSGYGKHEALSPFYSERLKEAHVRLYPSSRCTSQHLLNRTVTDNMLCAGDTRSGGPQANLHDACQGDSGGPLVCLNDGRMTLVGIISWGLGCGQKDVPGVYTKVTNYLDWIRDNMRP

Mus musculus [7] = test: Efficacy required to inhibit thrombin was determined after 1 hr of intravenous administration in the mouse thrombin challenge model; format: functional
[8] = biological target: T3, Tissue-type plasminogen activator; test: Concentration required to inhibit tissue-type plasminogen activator (t-PA) was determined

SMILES: CC(O)[C@H](NC(=O)[C@H](Cc1ccc([N+](=O)[O-])cc1)NC(=O)CCCN=C(N)N)C(=O)N[C@H](C)c1ccccc1 (some centres not stated)
- IC50 (Prothrombin [1]): 72 nM

SMILES: CC(O)[C@H](NC(=O)[C@H](Cc1ccc([N+](=O)[O-])cc1)NC(=O)CCCN=C(N)N)C(=O)N[C@H](C)Cc1ccccc1 (some centres not stated)
- IC50 (Prothrombin [1]): 43 nM

SMILES: COC(=O)[C@@H](NC(=O)[C@@H](NC(=O)[C@H](Cc1ccc([N+](=O)[O-])cc1)NC(=O)CCCN=C(N)N)C(C)O)C1CCCCC1 (some centres not stated)
- IC50 (Prothrombin [1]): 16 nM

SMILES: CC(O)[C@H](NC(=O)[C@H](Cc1ccc([N+](=O)[O-])cc1)NC(=O)CCCN=C(N)N)C(N)=O (some centres not stated)
- IC50 (Prothrombin [1]): 230000 nM

SMILES: CN[C@H](Cc1ccccc1)C(=O)N1CCC[C@H]1C(=O)N[C@H](C=O)CCCNC(=N)N [EFEGATRAN]
- IC50 (Serine protease 1): 45 nM
- Ki (Prothrombin [2]): 7 nM
- ED50 (Mus musculus [3]): 44 mg/kg
- ED50 (Mus musculus [4]): 0.04 mg/kg
- IC50 (Prothrombin [5]): 30 nM
- IC50 (Plasminogen): 25000 nM
- IC50 (Coagulation factor X): 16000 nM
- IC50 [6]: 34000 nM
- ED50 (Mus musculus [7]): 3 mg/kg

SMILES: CC(O)[C@H](NC(=O)[C@H](Cc1ccc([N+](=O)[O-])cc1)NC(=O)CCCN=C(N)N)C(=O)N[C@H](C(=O)O)C1CCCCC1 (some centres not stated)
- IC50 (Prothrombin [1]): 55 nM

SMILES: CC(O)[C@@H](C(=O)N[C@H](C)c1ccccc1)N(C)C(=O)[C@H](Cc1ccc([N+](=O)[O-])cc1)NC(=O)CCCN=C(N)N (some centres not stated)
- IC50 (Serine protease 1): 8 nM
- ED50 (Mus musculus [3]): 23 mg/kg
- ED50 (Mus musculus [4]): 0.21 mg/kg
- IC50 (Prothrombin [5]): 8 nM
- IC50 (Plasminogen): 230 nM
- IC50 (Coagulation factor X): 4600 nM
- ED50 (Mus musculus [7]): 2.2 mg/kg
- IC50 [8]: 700 nM

The remaining molecules from weak to strong by IC50 (Prothrombin [1]), led by results:

- IC50 (Prothrombin [1]): 310 nM
SMILES: CC(O)[C@H](NC(=O)[C@H](Cc1ccc([N+](=O)[O-])cc1)NC(=O)CCCN=C(N)N)C(=O)N[C@@H](C)c1ccccc1 (some centres not stated)

- IC50 (Prothrombin [1]): 260 nM
SMILES: CC(O)[C@H](NC(=O)[C@H](Cc1ccc([N+](=O)[O-])cc1)NC(=O)CCCN=C(N)N)C(=O)N[C@@H](C)Cc1ccccc1 (some centres not stated)

- IC50 (Prothrombin [1]): 19 nM
SMILES: CC(O)[C@H](NC(=O)[C@H](Cc1ccc([N+](=O)[O-])cc1)NC(=O)CCCN=C(N)N)C(=O)N[C@H](CO)C1CCCCC1 (some centres not stated)

- IC50 (Prothrombin [1]): 19 nM
SMILES: CC(O)[C@H](NC(=O)[C@H](Cc1ccc([N+](=O)[O-])cc1)NC(=O)CCCN=C(N)N)C(=O)N[C@H](CO)c1ccccc1 (some centres not stated)

- IC50 (Prothrombin [1]): 8.3 nM
SMILES: COC(=O)[C@@H](NC(=O)[C@@H](NC(=O)[C@H](Cc1ccc([N+](=O)[O-])cc1)NC(=O)CCCN=C(N)N)C(C)O)c1ccccc1 (some centres not stated)
